From patent publication US7732429B2 (Trustees of Tufts College, priority 1994, dated 2010)

Legend:
[1] = target: T1, efflux protein (Escherichia coli, UniProt P02980); test: everted membrane vesicle assay, blocking activity of 13-S-derivatives; assay type: biochemical; conditions: blocking activity against the efflux protein, everted membrane vesicle assay
T1 sequence (P02980 1-401): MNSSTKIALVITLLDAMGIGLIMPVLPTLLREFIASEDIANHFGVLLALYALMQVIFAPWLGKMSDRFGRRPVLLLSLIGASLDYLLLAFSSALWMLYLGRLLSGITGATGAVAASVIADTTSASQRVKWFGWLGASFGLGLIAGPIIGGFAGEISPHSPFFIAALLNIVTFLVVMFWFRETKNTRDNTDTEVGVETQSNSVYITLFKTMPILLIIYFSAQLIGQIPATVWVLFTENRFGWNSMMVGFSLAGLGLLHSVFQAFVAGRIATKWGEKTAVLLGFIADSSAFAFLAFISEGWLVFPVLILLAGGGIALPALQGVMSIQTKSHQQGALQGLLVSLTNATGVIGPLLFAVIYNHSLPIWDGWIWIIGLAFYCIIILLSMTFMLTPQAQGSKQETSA

[2] = tested on: E. coli Tc^s (MI 308-226); test: susceptibility testing MIC/MLC, drug alone; assay type: cell-based; conditions: Tc^s (MI 308-226), drug alone; for MLC: kills 99.9%
[3] = tested on: E. coli Class A Tc^r (DI-299); assay type: cell-based; conditions: drug alone; for MLC: kills 99.9%
[4] = tested on: E. coli Class B Tc^r (DI-209); assay type: cell-based; conditions: drug alone; for MLC: kills 99.9%
[5] = tested on: E. faecalis Tc^s (ATCC9790r); test: susceptibility testing MIC/MLC, drug alone; assay type: cell-based
[6] = tested on: E. faecalis Tc^r (L) ATCC9790r/Tell.); test: susceptibility testing MIC/MLC, drug alone; assay type: cell-based; conditions: Tc^r (L) ATCC9790r/Tell.), drug alone
[7] = tested on: E. faecalis Tc^r(M) (ATCC09790r/TelM); assay type: cell-based; conditions: drug alone
[8] = tested on: E. coli DI-299 (Tet A); test: MIC/MLC chart, analog with and without doxycycline; assay type: cell-based; design: key to growth/killing, Analog + Doxy / growth/killing, Doxy Control / growth/killing, Analog Control / growth in MIC/MLC chart: +=growth; 0=no growth (MIC); ↓=killing; ? =99.9% killing (MLC); □=no growth, but no microbiologic testing;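 also: bacterial growth inhibition and killing in broth, each agent tested alone or combined with doxycycline across two-fold serial dilutions, overnight incubation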
[9] = tested on: S. aureus 4250 (Tet K); test: MIC/MLC chart, analog with and without doxycycline; assay type: cell-based
[10] = tested on: E. faecalis 158 (Tet L); test: MIC/MLC chart, analog with and without doxycycline; assay type: cell-based
[11] = tested on: E. faecalis 211 (Tet M); test: MIC/MLC chart, analog with and without doxycycline; assay type: cell-based
[12] = Doxy Control: doxycycline alone 1.56 μg/ml
[13] = Doxy Control: doxycycline alone 3.12 μg/ml
[14] = Doxy Control: doxycycline alone 6.25 μg/ml
[15] = Doxy Control: doxycycline alone 12.5 μg/ml

Structure (SMILES): CN(C)C1C(O)=C(C(N)=O)C(=O)C2(O)C(O)=C3C(=O)c4c(O)cccc4C(C)(O)C3CC12 (stereo not drawn) [Tetracycline, 4-(Dimethylamino)-1,4,4a,5,5a,6-11,12a-octahydro-3,6,10,12,12a-pentahydroxy-6-methyl-1-11-dioxo-2-naphthacenecarboxamide, reference compound]
- Ki [1]: 9 to 18 µM
- MIC [2]: 0.6 ± 0.26 µg
- MLC [2]: 40 ± 0.26 µg
- MIC [3]: 150 ± 0.25 µg
- MLC [3]: 200 µg
- MIC [4]: >200 µg
- MLC [4]: >200 µg
- MIC [5]: 0.25 µg
- MIC [6]: 90 ± 10 µg
- MIC [7]: 100 µg

Structure (SMILES): C[C@H]1c2cccc(O)c2C(O)=C2C(=O)[C@]3(O)C(O)=C(C(N)=O)C(=O)[C@@H](N(C)C)[C@@H]3[C@@H](O)[C@@H]21 [Doxy, Doxycycline, reference compound]
- growth in MIC/MLC chart [8, 12]: +
- growth in MIC/MLC chart [8, 13]: +
- growth in MIC/MLC chart [8, 14]: +
- growth in MIC/MLC chart [8, 15]: +
- growth in MIC/MLC chart ([8]; Doxy Control: doxycycline alone 25.0 μg/ml): +
- growth/killing, Doxy Control ([8]; Doxy alone 1.56 μg/ml): +
- growth/killing, Doxy Control ([8]; Doxy alone 3.12 μg/ml): +
- growth/killing, Doxy Control ([8]; Doxy alone 6.25 μg/ml): +
- growth/killing, Doxy Control ([8]; Doxy alone 12.5 μg/ml): +
- growth/killing, Doxy Control ([8]; Doxy alone 25.0 μg/ml): +
- growth in MIC/MLC chart [9, 12]: +
- growth in MIC/MLC chart [9, 13]: +
- growth in MIC/MLC chart [9, 14]: +
- growth in MIC/MLC chart [9, 15]: +
- growth/killing, Doxy Control ([9]; Doxy alone 1.56 μg/ml): +
- growth/killing, Doxy Control ([9]; Doxy alone 3.12 μg/ml): +
- growth/killing, Doxy Control ([9]; Doxy alone 6.25 μg/ml): +
- growth/killing, Doxy Control ([9]; Doxy alone 12.5 μg/ml): +
- growth in MIC/MLC chart [10, 12]: +
- growth in MIC/MLC chart [10, 13]: +
- growth in MIC/MLC chart [10, 14]: +
- growth/killing, Doxy Control ([10]; Doxy alone 1.56 μg/ml): +
- growth/killing, Doxy Control ([10]; Doxy alone 3.12 μg/ml): +
- growth/killing, Doxy Control ([10]; Doxy alone 6.25 μg/ml): +
- growth in MIC/MLC chart [11, 12]: +
- growth in MIC/MLC chart [11, 13]: +
- growth in MIC/MLC chart [11, 14]: +
- growth in MIC/MLC chart [11, 15]: +
- growth/killing, Doxy Control ([11]; Doxy alone 1.56 μg/ml): +
- growth/killing, Doxy Control ([11]; Doxy alone 3.12 μg/ml): +
- growth/killing, Doxy Control ([11]; Doxy alone 6.25 μg/ml): +
- growth/killing, Doxy Control ([11]; Doxy alone 12.5 μg/ml): +

Structure (SMILES): CCCCCCCCCCSCC1c2cccc(O)c2C(=O)C2=C(O)C3(O)C(=O)C(C(N)=O)=C(O)C(N(C)C)C3C(O)C21 (stereo not drawn) [Decyl]
- Ki [1]: 8.0 µg/mL

Structure (SMILES): CN(C)c1ccc(O)c2c1C[C@H]1C[C@H]3[C@H](N(C)C)C(=O)C(C(N)=O)=C(O)[C@@]3(O)C(=O)C1=C2O [Minocycline, reference compound]
- MIC [2]: <4 µg
- MLC [2]: <4 µg
- MIC [3]: <4 µg
- MLC [3]: 20 µg
- MIC [4]: 6 ± 2 µg
- MLC [4]: 30 ± 10 µg
- MIC [5]: <0.25 µg
- MIC [6]: <0.25 µg
- MIC [7]: 10 µg

Structure (SMILES): CC(C)CSCC1c2cccc(O)c2C(=O)C2=C(O)C3(O)C(=O)C(C(N)=O)=C(O)C(N(C)C)C3C(O)C21 (stereo not drawn) [Isobutyl]
- Ki [1]: 0.188 µM

Structure (SMILES): CCCCCCSCC1c2cccc(O)c2C(=O)C2=C(O)C3(O)C(=O)C(C(N)=O)=C(O)C(N(C)C)C3C(O)C21 (stereo not drawn) [Hexyl]
- Ki [1]: 5.53 µM
